Test results taken from patent US11384060B2, “Amide compounds and use thereof” (ALPHALA CO., LTD., priority 2017, dated 2022).
Read-outs that look alike come from different tables or passages of the source.

Key:
[1] = biological target: T1, glucagon receptor (GCGR) overexpressed CHO-K1 cells or human primary hepatocytes (Homo sapiens, UniProt P47871); experiment: Glucagon cAMP inhibition assay (Cisbio cAMP Dynamic 2 HTRF); assay type: cell-based
T1 construct: expressed in transfected cells; host or cells: GCGR overexpressed CHO-K1 cells or human primary hepatocytes (endogenous receptor)
T1 sequence (P47871 26-477): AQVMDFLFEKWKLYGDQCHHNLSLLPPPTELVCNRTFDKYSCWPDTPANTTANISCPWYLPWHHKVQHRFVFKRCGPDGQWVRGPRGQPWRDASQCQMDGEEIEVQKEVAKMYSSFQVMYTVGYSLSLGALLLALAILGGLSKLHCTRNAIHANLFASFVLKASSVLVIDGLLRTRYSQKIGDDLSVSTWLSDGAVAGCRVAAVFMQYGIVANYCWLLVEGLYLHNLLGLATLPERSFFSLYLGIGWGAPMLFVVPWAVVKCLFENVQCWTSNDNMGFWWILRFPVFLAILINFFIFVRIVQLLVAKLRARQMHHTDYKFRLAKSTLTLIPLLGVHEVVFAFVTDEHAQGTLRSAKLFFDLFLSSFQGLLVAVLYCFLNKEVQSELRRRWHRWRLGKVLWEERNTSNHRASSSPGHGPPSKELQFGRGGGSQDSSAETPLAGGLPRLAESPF
Procedure, shortened: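 HTRF read-out of glucagon-induced cAMP, with IC50 from non-linear regression. Cells (GCGR CHO-K1 or human primary hepatocytes) in HBSS/0.1% BSA/800 nM IBMX took compound dilutions for 30 min (final DMSO 1%), then EC50-level glucagon for 30 min at room temperature, then a 60 min lysis/detection step.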

[2] = biological target: T2, glucagon receptor (GCGR) (Homo sapiens, UniProt P47871); experiment: I125-glucagon binding assay (competition, GCGR membrane fractions)
T2 construct: expressed in transfected cells; host or cells: CHO-K1 cells overexpressing GCGR (membrane fractions)
T2 sequence (P47871 26-477): as above
Procedure, shortened: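 Competition of 0.0625 nM (final) I^125-glucagon for 30 min at 25° C, after 5 min compound preincubation, using 7.5 μg/well GCGR-overexpressing CHO-K1 membranes in 50 mM Tris pH 7.4, 0.5% BSA. Filtration onto PEI-coated GF/B, micro-beta counting, and non-linear regression gave IC50.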

[3] = inhibition of glucagon (EC50 concentration) induced cAMP production
[4] = competition with I125-glucagon 0.0625 nM, membrane fractions of GCGR overexpressed CHO-K1 cells

IC50 cAMP [1] [nM] | IC50 ([2]; uM) [µM] | IC50 [2] [µM] | IC50 cAMP [1, 3] [nM] | IC50 [2, 4] [µM] | SMILES
3200 |  | 0.269 |  |  | CC(C)C[C@H](Nc1ccc(C(=O)NCCC(=O)O)cc1)C(=O)Nc1ccc(-c2ccc(C(F)(F)F)cc2)cc1 [Compound 23-4, (S)-3-(4-((4-methyl-1-oxo-1-((4′-(trifluoromethyl)-[1,1′-biphenyl]-4-yl)amino)pentan-2-yl)amino)benzamido)propanoic Acid]
 |  |  | 487 | 0.12 | CC(C)[C@@H](COc1ccc(-c2ccc(C(F)(F)F)cc2)cc1)Nc1ccc(C(=O)NCCC(=O)O)nc1 [Compound 9-3, (S)-3-(5-((3-methyl-1-((4′-(trifluoromethyl)-[1,1′-biphenyl]-4-yl)oxy)butan-2-yl)amino)picolinamido)propanoic Acid]
 |  |  | 811 | 0.075 | CC(C)C[C@@H](COc1cc(F)c(-c2ccc(C(F)(F)F)cc2Cl)c(F)c1)Nc1ccc(C(=O)NCCC(=O)O)cc1 [Compound 7-5, (S)-3-(4-((1-((2′-chloro-2,6-difluoro-4′-(trifluoromethyl)-[1,1-biphenyl]-4-yl)oxy)-4-methylpentan-2-yl)amino)benzamido)propanoic Acid]
 |  |  | 3332 | 0.769 | CC[C@H](C)[C@@H](COc1ccc(-c2ccc(C(F)(F)F)cc2F)nn1)Nc1ccc(C(=O)NCCC(=O)O)cc1 [Compound 17-5, 3-(4-(((2S,3S)-1-((6-(2-fluoro-4-(trifluoromethyl)phenyl)pyridazin-3-yl)oxy)-3-methylpentan-2-yl)amino)benzamido)propanoic Acid]
 |  |  | 864.4 | 0.034 | CCCC[C@@H](COc1ccc(-c2ccc(Cl)cc2Cl)cc1)Nc1ccc(C(=O)NCCC(=O)O)cc1 [Compound 1-17, (S)-3-(4-((1-((2′,4′-dichloro-[1,1′-biphenyl]-4-yl)oxy)hexan-2-yl)amino)benzamido)propanoic Acid]
 |  |  | 5441 | 0.601 | CC[C@H](C)[C@@H](COc1ccc(-c2nnc(-c3ccccc3)o2)cc1)Nc1ccc(C(=O)NCCC(=O)O)cc1 [Compound 1-46, 3-(4-(((2S,3S)-3-methyl-1-(4-(5-phenyl-1,3,4-oxadiazol-2-yl)phenoxy)pentan-2-yl)amino)benzamido)propanoic Acid]
 |  |  | 494.8 | 0.139 | CC[C@H](C)[C@@H](COc1ccc(-c2ccc(Cl)cc2Cl)cc1)Nc1ccc(C(=O)NCCC(=O)O)cc1 [Compound 1-7, 3-(4-(((2S,3S)-1-((2′,4′-dichloro-[1,1′-biphenyl]-4-yl)oxy)-3-methylpentan-2-yl)amino)benzamido)propanoic Acid]
 |  |  | 1250 | 0.086 | CC(C)[C@@H](COc1ccc(-c2ccc(C(F)(F)F)cc2Cl)c(Cl)c1)Nc1ccc(C(=O)NCc2nnn[nH]2)cc1 [Compound 3-3, (S)—N-((1H-tetrazol-5-yl)methyl)-4-((1-((2,2′-dichloro-4′-(trifluoromethyl)-[1,1′-biphenyl]-4-yl)oxy)-3-methylbutan-2-yl)amino)benzamide]
>30000 |  | 2.68 |  |  | Cc1c(-c2nnc([C@H](Cc3ccc(-c4ccc(C(F)(F)F)cc4)cc3)Nc3ccc(C(=O)NCCC(=O)O)cc3)o2)oc2ccccc12 [Compound 20-6, (S)-3-(4-((1-(5-(3-methylbenzofuran-2-yl)-1,3,4-oxadiazol-2-yl)-2-(4′-(trifluoromethyl)-[1,1′-biphenyl]-4-yl)ethyl)amino)benzamido)propanoic Acid]
>30000 |  | 1.43 |  |  | CCCC[C@@H](COc1nnc(-c2ccc(OC(F)(F)F)cc2)o1)Nc1ccc(C(=O)NCCC(=O)O)cc1 [Compound 22-2, (S)-3-(4-((1-((5-(4-(trifluoromethoxy)phenyl)-1,3,4-oxadiazol-2-yl)oxy)hexan-2-yl)amino)benzamido)propanoic Acid]
 |  |  | 77.8 | 0.079 | COc1cc(OC[C@@H](Nc2ccc(C(=O)NCCC(=O)O)cc2)C(C)C)ccc1-c1ccc(C(F)(F)F)cc1F [Compound 13-8, (S)-3-(4-((1-((2′-fluoro-2-methoxy-4′-(trifluoromethyl)-[1,1′-biphenyl]-4-yl)oxy)-3-methylbutan-2-yl)amino)benzamido)propanoic Acid]
 |  |  | 528 | 0.184 | CC[C@H](C)[C@@H](COc1ccc(-c2cc3ccccc3o2)cc1)Nc1ccc(C(=O)NCCC(=O)O)cc1 [Compound 1-4, 3-(4-(((2S,3S)-1-(4-(benzofuran-2-yl)phenoxy)-3-methylpentan-2-yl)amino)benzamido)propanoic Acid]
 |  |  | 9828 | 0.539 | CC(C)[C@@H](COc1cnc(-c2ccc(C(F)(F)F)cc2Cl)nc1)Nc1ccc(C(=O)NCCC(=O)O)cc1 [Compound 12-4]
 |  |  | 2719 | 0.331 | CCC(C)[C@@H](COc1cnc(-c2ccc(C(F)(F)F)cc2Cl)nc1)Nc1ccc(C(=O)NCCC(=O)O)cc1 (stereo partly drawn) [Compound 12-8, 3-(4-(((2S)-1-((2-(2-chloro-4-(trifluoromethyl)phenyl)pyrimidin-5-yl)oxy)-3-methylpentan-2-yl)amino)benzamido)propanoic Acid]
 |  |  | 546 | 0.138 | CC(C)[C@@H](COc1ccc(-c2nc3ccccc3o2)cc1)Nc1ccc(C(=O)NCCC(=O)O)cc1 [Compound 1-48, (S)-3-(4-((1-(4-(benzo[d]oxazol-2-yl)phenoxy)-3-methylbutan-2-yl)amino)benzamido)propanoic Acid]

The remaining lines, values behind:

SMILES | IC50 cAMP [1] [nM] | IC50 ([2]; uM) [µM] | IC50 [2] [µM] | IC50 cAMP [1, 3] [nM] | IC50 [2, 4] [µM]
CCOC(=O)CCNC(=O)c1ccc(N[C@H](CC(C)C)C(=O)Nc2ccc(C(F)(F)F)cc2)cc1 [Compound 24-9, Ethyl (R)-3-(4-((4-methyl-1-oxo-1-((4-(trifluoromethyl)phenyl)amino)pentan-2-yl)amino)benzamido)propanoate] | 1059 | > 10 |  |  | 
CC[C@H](C)[C@@H](COc1ccc(-c2cc3ccccc3o2)c(F)c1)Nc1ccc(C(=O)NCCC(=O)O)cc1 [Compound 8-7, 3-(4-(((2S,3S)-1-(4-(benzofuran-2-yl)-3-fluorophenoxy)-3-methylpentan-2-yl)amino)benzamido)propanoic Acid] |  |  |  | 129 | 0.186
CCCC[C@@H](Cc1noc(-c2ccc(C(C)(C)C)cc2)n1)Nc1ccc(C(=O)NCCC(=O)O)cc1 [Compound 21-1, (S)-3-(4-((1-(5-(4-(tert-butyl)phenyl)-1,2,4-oxadiazol-3-yl)hexan-2-yl)amino)benzamido)propanoic Acid] |  |  |  | 170.4 | 0.803
CCCC[C@H](Nc1ccc(C(=O)NCCC(=O)O)cc1)C(=O)Nc1ccc(-c2cc3ccccc3o2)cc1 [Compound 23-35, (S)-3-(4-((1-((4-(benzofuran-2-yl)phenyl)amino)-1-oxohexan-2-yl)amino)benzamido) propanoic Acid] | 15397 |  | 0.186 |  | 
CC(C)COC[C@H](Cc1ccc(-c2cccc(C(F)(F)F)c2)cc1)Nc1ccc(C(=O)NCCC(=O)O)cc1 [Compound 19-28, (S)-3-(4-((1-isobutoxy-3-(3′-(trifluoromethyl)-[1,1′-biphenyl]-4-yl)propan-2-yl)amino)benzamido)propanoic Acid] | 726 |  | 0.872 |  | 
CCN(c1ccc(C(=O)NCCC(=O)O)cc1)[C@H](COc1ccc(-c2cc3ccccc3o2)cc1)C(C)C [Compound 6-2, (S)-3-(4-((1-(4-(benzofuran-2-yl)phenoxy)-3-methylbutan-2-yl)(ethyl)amino)benzamido)propanoic Acid] |  |  |  | 164.3 | 0.645
CC[C@H](C)[C@@H](COc1ccc(-c2ccc(Cl)cc2Cl)cc1)Nc1ccc(C(=O)NCc2nnn[nH]2)cc1 [Compound 1-13, N-((1H-tetrazol-5-yl)methyl)-4-(((2S,3S)-1-((2′,4′-dichloro-[1,1′-biphenyl]-4-yl)oxy)-3-methylpentan-2-yl)amino)benzamide] |  |  |  | 1730 | 0.141
CCCOC[C@H](Cc1ccc(-c2ccc(Cl)cc2Cl)cc1)Nc1ccc(C(=O)NCCC(=O)O)cc1 [Compound 19-15, (S)-3-(4-((1-(2′,4′-dichloro-[1,1′-biphenyl]-4-yl)-3-propoxypropan-2-yl)amino)benzamido)propanoic Acid] | 2029 |  | 2.67 |  | 
CC[C@H](C)[C@@H](COc1nnc(-c2ccc(C(F)(F)F)cc2F)o1)Nc1ccc(C(=O)NCCC(=O)OC)cc1 [Compound 22-20, Methyl 3-(4-(((2S,3S)-1-((5-(2-fluoro-4-(trifluoromethyl)phenyl)-1,3,4-oxadiazol-2-yl)oxy)-3-methylpentan-2-yl)amino)benzamido)propanoate] | >30000 |  | > 30 |  | 
CCCC[C@@H](COc1ccc(-c2cc3ccccc3o2)c(F)c1)Nc1ccc(C(=O)NCCC(=O)O)cc1 [Compound 8-13, (S)-3-(4-((1-(4-(benzofuran-2-yl)-3-fluorophenoxy)hexan-2-yl)amino)benzamido) propanoic Acid] |  |  |  | 84 | 0.044
CCC(C)[C@H](Nc1ccc(C(=O)NCCC(=O)O)cc1)c1nnc(-c2ccc(C(C)(C)C)cc2)o1 (stereo partly drawn) [Compound 20-3, 3-(4-(((1S)-1-(5-(4-(tert-butyl)phenyl)-1,3,4-oxadiazol-2-yl)-2-methylbutyl)amino)benzamido)propanoic Acid] | 9163 |  | 0.801 |  | 
